Reference: patent US20240059710A1, “KRAS G12D Inhibitors” (Jacobio Pharmaceuticals Co., Ltd., priority 2020, published 2024)
Read-outs that look alike come from different tables or passages of the source.

Experiments:
AsPC-1 = test: Cell growth inhibition assay (AsPC-1); format: cell-based; conditions: AsPC-1, 6 days incubation, CellTiter-Glo
Outline: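 AsPC-1 cells seeded at 1000 cells/well in RPMI-1640 with 10% FBS, attached overnight, then exposed to compound dilutions for 6 days at 37 °C/5% CO2. Viability read by CellTiter-Glo luminescence; IC50 from a 4-parameter logistic fit.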

[1] = target: T1, GDP-loaded HIS-KRAS (G12D, aa 1-169) (Homo sapiens, UniProt P01116, G12D); test: SOS1 catalyzed nucleotide exchange assay; format: biochemical; conditions: SOS1 ExD, TR-FRET, 4 hours at 25° C.
T1 construct: GDP-loaded HIS-KRAS (G12D, aa 1-169)
T1 sequence (P01116 1-169 isoform P01116-2 G12D): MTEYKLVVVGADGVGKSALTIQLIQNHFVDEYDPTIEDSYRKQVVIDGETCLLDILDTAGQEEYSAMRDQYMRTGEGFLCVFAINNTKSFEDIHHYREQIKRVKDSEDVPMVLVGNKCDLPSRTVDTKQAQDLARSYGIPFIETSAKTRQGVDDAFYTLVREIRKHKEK
Outline: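 Compound was preincubated 15 min with 1.5 nM GDP-loaded KRAS G12D (final 5 nM GDP). SOS1 ExD (aa 564-1049, 0.5 µM), 80 nM BODIPY FL GTP and anti-His Tb antibody were then added for 4 h at 25 °C. The TR-FRET 515/486 ratio was normalized between DMSO and no-KRAS wells, and IC50 came from 4-parameter fits.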

[2] = test system: AGS cells expressing KRAS G12D; test: Phospho-ERK1/2(THR202/TYR204) HTRF assay; format: cell-based; conditions: 2 hours incubation, read-out: AGS p-ERK IC50
Outline: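 Cells seeded 40,000/well, incubated overnight, then treated with compound in F12K with 0.1% FBS for 2 h at 37 °C. Lysates assayed for phospho-ERK1/2 by HTRF after 4 h at 25 °C; IC50 from 4-parameter logistic fit.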

AGS = test: Cell growth inhibition assay (AGS); format: cell-based; conditions: 6 days incubation, CellTiter-Glo
Outline: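 AGS cells in F12K/10% FBS plated at 500 cells/well, attached overnight, then exposed to compounds for 6 days at 37° C./5% CO2. Viability by CellTiter-Glo luminescence; IC50 from 4-parameter logistic fit.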

[3] = target: T2, GppNp-loaded HIS-KRAS (G12D, aa 1-169) / cRAF RBD (Homo sapiens, UniProt P01116, G12D); test: GTP-KRAS and cRAF interaction assay; format: binding; conditions: HTRF, 2 hours at 25° C.
T2 construct: GppNp-loaded HIS-KRAS (G12D, aa 1-169)
T2 sequence (P01116 1-169 isoform P01116-2 G12D): as above
Outline: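 GppNp-loaded KRAS G12D (2.0 nM) preincubated 15 min with compound, then cRAF RBD (35 nM) and HTRF antibodies added for 2 h at 25° C with 100 μM GTP final. Ratios normalized to DMSO and no-KRAS controls; IC50 by 4-parameter fit.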

| Compound | IC50 (AsPC-1; Homo sapiens, ASPC1, 144 h) | IC50 [1] | IC50 ([2]; Homo sapiens) | IC50 (AGS; Homo sapiens, 144 h) | IC50 [3] | IC50 (AsPC-1) | IC50 [2] | IC50 (AGS) |
| --- | --- | --- | --- | --- | --- | --- | --- | --- |
| C#Cc1cccc2cc(O)cc(-c3cc4nc(OCC5(CN6CCOCC6)CC5)nc(N5CC6CCC(C5)N6)c4cc3CC)c12 [Compound 109] | 86.9 nM | 48.5 nM | 51.9 nM | 28.3 nM | 140 nM |  |  |  |
| C#Cc1cccc2cc(O)cc(-c3ccc4c(N5CC6CCC(C5)N6)nc(OCC5(CN6CCC[C@H](F)C6)CC5)nc4c3F)c12 [Compound 113] |  | 12.6 nM |  |  | 124 nM | 18.4 nM | 15.9 nM | 4.35 nM |
| C#Cc1cccc2cc(O)cc(-c3ccc4c(N5CC6CCC(C5)N6)nc(OCC5(CN6CC[C@@H](F)C6)CC5)nc4c3F)c12 [Compound 114] | 18.7 nM | 12.3 nM | 9.02 nM | 4.47 nM | 120 nM |  |  |  |
| C#Cc1cccc2cc(O)cc(-c3ccc4c(N5CC6CCC(C5)N6)nc(OCC5(CN6CCOC[C@H]6C)CC5)nc4c3F)c12 [Compound 115] | 7.52 nM | 28.2 nM | 4.23 nM | 4.23 nM | 121 nM |  |  |  |
| C#Cc1cccc2cc(O)cc(-c3ccc4c(N5CC6CCC(C5)N6)nc(OCC5(CN6CCCC6)CC5)nc4c3F)c12 [Compound 116] | 189 nM | 12.5 nM | 10.8 nM | 20.8 nM | 110 nM |  |  |  |
| C#Cc1cccc2cc(O)cc(-c3ccc4c(N5CC6CCC(C5)N6)nc(OCC5(CN6CCC(OC)CC6)CC5)nc4c3F)c12 [Compound 117] | 85.6 nM | 17.1 nM | 10.3 nM | 12.4 nM | 129 nM |  |  |  |
| C#Cc1cccc2cc(O)cc(-c3cc4nc(OCC5(CN6CCOCC6)CC5)nc(N5CC6CCC(C5)N6)c4cc3C)c12 [Compound 118] | 145 nM | 19.2 nM | 64 nM | 31.1 nM | 165 nM |  |  |  |
| C#Cc1cccc2cc(O)cc(-c3cc4nc(OCC5(CN6CCOCC6)CC5)nc(N5CC6CCC(C5)N6)c4cc3C(F)(F)F)c12 [Compound 119] | 362 nM | 42.9 nM | 113 nM | 81.6 nM | 200 nM |  |  |  |
| C#Cc1cccc2cc(O)cc(-c3cc4nc(OCC5(CN6CCOCC6)CC5)nc(N5CC6CCC(C5)N6)c4cc3OC)c12 [Compound 120] | 180 nM | 37.4 nM | 19.9 nM | 28.1 nM | 307 nM |  |  |  |
| C#Cc1cccc2cc(O)cc(-c3ccc4c(N5CC6CCC(C5)N6)nc(OCC5(CN6CCOCC6)CC5)nc4c3Cl)c12 [Compound 121] | 67 nM | 28.8 nM | 19.7 nM | 11.2 nM | 318 nM |  |  |  |
| C#Cc1c(Cl)ccc2cc(O)cc(-c3c(F)cc4c(N5CC6CCC(C5)N6)nc(OCC5(CN6CCOCC6)CC5)nc4c3F)c12 [Compound 126] | 14.3 nM | 2.07 nM | 20.8 nM | 0.486 nM | 24.7 nM |  |  |  |
| C#Cc1c(Cl)ccc2cc(O)cc(-c3ccc4c(N5CC6CCC(C5)N6)nc(OCC5(CN6CCOCC6)CC5)nc4c3F)c12 [Compound 127] | 24 nM | 1.18 nM | 2.61 nM | 1.82 nM | 15.7 nM |  |  |  |
| C#Cc1cccc2cc(O)cc(-c3ccc4c(N5CC6CCC(C5)N6)nc(OCC5(CN6CCCCC6)CC5)nc4c3F)c12 [Compound 131] | 55 nM | 9.1 nM | 9.86 nM | 13.4 nM | 90.4 nM |  |  |  |
| C#Cc1cccc2cc(O)cc(-c3ccc4c(N5CC6CCC(C5)N6)nc(OCC5(CN6CCOCC6)CC5)nc4c3C)c12 [Compound 132] | 111 nM | 25.7 nM | 96.4 nM | 33.2 nM | 794 nM |  |  |  |
| Oc1cc(Cl)c(C2CC2)c(-c2c(Cl)cc3c(N4CC5CCC(C4)N5)nc(OCC4(CN5CCOCC5)CC4)nc3c2F)c1 [Compound 133] | 714 nM | 7.82 nM | 456 nM | 140 nM | 688 nM |  |  |  |
